Assay results as given in ChEMBL document CHEMBL1132856, “Antitumour activity of sphingoid base adducts of phenethyl isothiocyanate” (2000).

How the values were obtained:
Leukemia 60 cell line [1] = assay: Median growth inhibitory concentration of compound tested in vitro against human leukemia 60 cells; format: functional
Leukemia 60 cell line [2] = assay: Median toxic concentration of compound tested in vitro against human leukemia 60 cells; format: functional; details: read-out: TC50 (the source's name)

CCCCCCCCCCCCCCCC(O)C(CO)/N=C(\S)NCCc1ccccc1 (stereo not given)
GC50 (Leukemia 60 cell line [1]): 1.6 µM | CC50 (Leukemia 60 cell line [2]): 2370 nM

CCCCCCCCCCCCC/C=C\C(O)C(CO)/N=C(\S)NCCc1ccccc1 (stereo not given)
GC50 (Leukemia 60 cell line [1]): 0.64 µM | CC50 (Leukemia 60 cell line [2]): 2530 nM

CCCCCCCCCCCCCCC[C@@H](O)[C@@H](N)CO [DIHYDROSPINGOSINE]
GC50 (Leukemia 60 cell line [1]): 0.49 µM | CC50 (Leukemia 60 cell line [2]): 2550 nM

S=C=NCCc1ccccc1 [PHENETHYLISOTHIOCYANATE]
GC50 (Leukemia 60 cell line [1]): 0.84 µM | CC50 (Leukemia 60 cell line [2]): 1370 nM

CCCCCCCCCCCCCC=C[C@@H](O)[C@@H](N)CO [SPHINGOSINE]
GC50 (Leukemia 60 cell line [1]): 1.24 µM | CC50 (Leukemia 60 cell line [2]): 2420 nM
